Assay results taken from US20030207933A1, “Compositions and methods for increasing the sensitivity of apoptosis-resistant tumor cells to inducers of apoptosis” (priority 2002, published 2003).

Legend:
[1] = test system: caspase 3; experiment: Caspase 3 activity (DEVDase); format: cell-based
From the text: However, more recent findings indicate that W-188 may also downregulate expression of endogenous Bcl-2 in cells that naturally have high levels of this protein.

[2] = test system: Ramos B lymphoma cells; experiment: Dox cytotoxicity by trypan blue exclusion in Ramos cells; format: cell-based; details: 24 hr
Protocol: In the present study, the sensitizing activity of W-188 and W-143 was tested in the Raji and Ramos cell lines. Since these two human B lymphoma lines naturally express high levels of anti-apoptotic Bcl-2 proteins, they may be more clinically relevant than the transfected HL-60-Bcl-2 line.
The sensitizing effects of W-143 and W-188 were first tested on these lines in vitro. […] Ramos cells were cultured with different concentrations of Dox with and without W-143 or W-188 at 20 μg/ml for 24 hr, and then viability assessed microscopically by counting at least 100 cells.

[3] = test system: P3X63Ag8.653 (P3X) cells; experiment: Drug-induced DNA fragmentation in Bcl-XL-overexpressing myeloma cells; format: cell-based, murine; details: W-188 0.1 μg/mL; etoposide, chlorambucil, YW-200; 24 h; FIG. 5
Protocol: It has been reported that the murine myeloma, SP2/0, is highly sensitive to cycloheximide-induced apoptosis, whereas the related murine myeloma, P3X63Ag8.653 (P3X), was resistant (Gauthier, E. R., et al., Cancer Res., 1996, 56:1451). This resistance was attributed to natural high levels of expression of Bcl-XL in the absence of any detectable Bcl-2. In contrast, SP2 expressed neither Bcl-2 or Bcl-XL. Thus, normal (SP2) or Bcl-XL-overexpressing cells (P3X) were treated with chemotherapeutic drugs ±0.1 μg/ml W-188. After 24 h, % DNA fragmentation was measured by release of ^3H-labeled DNA fragments.
P3X was relatively resistant to DNA fragmentation induced by three chemotherapeutic drugs, etoposide, chlorambucil, and YW-200, relative to SP2 (FIG. 5). YW-200 is an experimental DNA-binding chemotherapeutic drug related to CC-1065 (Wang, Y., et al., U.S. Pat. No. 5,843,937, 1998).

[4] = test system: HL-60 Bcl-2 cells; experiment: DNA fragmentation (release of 3H-labeled DNA fragments) in Bcl-2-transfected HL-60 cells; format: cell-based, human
[5] = test system: normal rat intestinal epithelial cells; experiment: Toxic effects of etoposide on normal intestinal epithelial cells; format: cell-based
From the text: (§1) LY-ar was highly resistant to apoptosis induced by y-radiation. […] The apparent selective effects of W-188 may be due to the preferential intracellular accumulation of porphyrin compounds in transformed cells as opposed to normal cells reported previously (Bugelski, P. J., et al., Cancer Res., 1981, 41:4606).

[6] = test system: mice; experiment: Histopathological analysis of internal organs after xenograft treatment; format: in vivo, nude mice; details: radiation + W-188 200 mg/kg; thirty days after treatment
Protocol: Thirty days after treatment, three mice that were given radiation+W-188 200 mg/kg (the optimal treatment in this experiment) were sacrificed and internal organs removed and processed for histopathological analysis by a board-certified pathologist at a commercial lab.

[7] = test system: Nuclei from HL-60 Bcl-2 cells; experiment: AP24-induced DNA fragmentation in nuclei isolated from pretreated cells; format: cell-based, human; details: for % DNA Fragmentation: cells incubated with W-188 5 μg/ml 4 hr, 20 hr assay
From the text: Nuclei isolated from HL-60-Bcl-2 cells were resistant to AP24-induced DNA fragmentation, as expected (Wright, S. C., et al., Cancer Res., 1998, 58:5570).

[8] = test system: HL-60 neo cells; experiment: DNA fragmentation (release of 3H-labeled DNA fragments) in vector control HL-60 neo cells; format: cell-based, human; details: neo cell lines (HL-60 neo, PW neo); compound added to inducers
Protocol: The present study evaluated the ability of W-188 to sensitize Bcl-2-overexpressing cells to induce apoptosis. The human myelogenous leukemia, HL-60, and the human B cell leukemia, PW, normally express very low levels of Bcl-2. As a model system, W-188 and various analogs and derivatives were tested in normal HL-60 and PW cells and in Bcl-2-transfected HL-60 and PW cells that overexpress high levels of Bcl-2 (see Gilbert et al., J. Cell Physiol., 1996, 171:299).
As depicted in FIG. 4, HL-60 cells (Panel A) and PW cells (Panel B) cells were exposed to various apoptosis inducers: TNF at 5 ng/ml; etoposide at 20 μM; and UV at 0.08 J/cm^2. The release of 3H-labeled DNA fragments was measured after 5 h. Normal HL-60 and PW cells were equally sensitive to apoptosis inducers as compared with cells that were transfected with vector encoding neomycin resistance (HL-60 neo and PW neo) only. […] W-188 alone was nontoxic. The addition of W-188 to the neo cell lines caused a 1.5-2 fold increase in DNA fragmentation in response to the various apoptosis inducers.

[9] = test system: LY-ar cells; experiment: 10 day colony formation assay, LY-ar; format: cell-based, murine; details: not shown
From the text: as §1

[10] = test system: HL-60-Bcl-2 xenograft; experiment: HL-60-Bcl-2 xenograft growth in nude mice; format: in vivo; details: single dose
Protocol: Groups of five nude mice were injected s.c. with 5×10^6 HL-60-Bcl-2 cells, and tumors allowed to grow to a size of 7-10 mm. Tumors were then exposed to a single dose of γ-radiation, a single dose of W-188 or vehicle control, or a single dose of both γ-radiation and W-188. Tumor growth was monitored every other day, and when the tumor volume increased four fold, the animals were sacrificed.

[11] = test system: AP24; experiment: Etoposide-induced activation of AP24 (AAPVase) in HL-60 and PW leukemia lines; format: cell-based, human; details: for AP24 Activity (AAPVase, nmol/mg/hr): etoposide 50 μM + W-188 5 μg/ml, 3 h
[12] = test system: overexpression of Bcl-2; experiment: Comparison with compounds reported to counteract Bcl-2; format: cell-based; details: at 2.5 [M; data not shown
From the text: W-188 was then compared to other compounds previously reported to counteract Bcl-2 (Marchetti, P., et al., J. Immunol., 1996, 157:4830; Hirsch, T., et al., Exp. Cell Res., 1998, 241:426).

SMILES: CCC1=C(C)C(/C=C2\NC(=O)C(C)=C2CC)=NC/1=C\c1[nH]c(/C=C2\NC(=O)C(C)=C2CC)c(C)c1CC [W-188, etiobiliverdin-IV]
- Caspase 3 activity (DEVDase) ([1]; W-188 + etoposide, HL-60-Bcl-2 and LY-ar cells): activation of caspase 3
- Caspase 3 activity (DEVDase) ([1]; W-188 alone): did not affect intracellular levels of GSH or caspase 3 activity
- Toxicity of compound alone ([2]; 20 μg/ml, no Dox): completely nontoxic
- Increase of cytotoxicity mediated by Dox ([2]; compound 20 μg/ml + Dox, FIG. 6): over two fold
- Sensitization to drug-induced DNA fragmentation [3]: sensitized P3X to undergo drug-induced DNA fragmentation at levels close to or equal to those of SP2
- % DNA Fragmentation ([4]; Exp 1, etoposide 5 μM + compound 5 μM): 40%
- % DNA Fragmentation ([4]; Exp 1, etoposide 5 μM + compound 10 μM): 76%
- % DNA Fragmentation ([4]; Exp 2, etoposide 10 μM + compound 10 μM): 62%
- % DNA Fragmentation ([4]; Exp 3, etoposide 5 μM + compound 10 μM): 92%
- % DNA Fragmentation ([4]; Exp 4, etoposide 5 μM + compound 10 μM): 59%
- % DNA Fragmentation ([4]; Exp 5, etoposide 10 μM + compound 10 μM): 55%
- Sensitization to DNA fragmentation induced by TNF, etoposide and UV light ([4]; TNF 5 ng/ml, etoposide 20 μM, UV 0.08 J/cm^2, 5 h, FIG. 4A): dose-dependently sensitized HL-60 Bcl-2 cells to DNA fragmentation induced by all three agents
- Optimal doses giving DNA fragmentation comparable with HL-60 neo cells ([4]; TNF, etoposide or UV, 5 h): 25 to 50 µg/mL
- Toxicity of compound alone ([4]; W-188 alone, no apoptosis inducer): nontoxic
- Bcl-2-sensitizing activity (in words) ([4]; tumor cells overexpressing Bcl-2, Table 4): most potent
- Effect on toxic effects of etoposide on normal cells [5]: did not increase the toxic effects of etoposide
- Histopathology of heart, lung, liver, spleen, kidney, stomach, intestine [6]: All tissues examined were found to be normal
- % DNA Fragmentation ([7]; AP24 dilution 1:10): 44 ± 4.8%
- % DNA Fragmentation ([7]; AP24 dilution 1:20): 19 ± 1.0%
- Sensitivity of isolated nuclei to AP24-induced DNA fragmentation (in words) ([7]; pretreatment of HL-60-Bcl-2 cells): restored the sensitivity of the isolated nuclei to AP24-induced DNA fragmentation
- Increase in DNA fragmentation in response to apoptosis inducers [8]: 1.5-2 fold
- Sensitization to cell death mediated by etoposide and chlorambucil [9]: sensitized HL-60-Bcl-2 and LY-ar cells to cell death mediated by etoposide and chlorambucil
- Effect on tumor growth ([10]; W-188 200 mg/kg alone): no significant effect
- Effect on tumor growth ([10]; W-188 400 mg/kg alone, p=0.005): significantly inhibited tumor growth
- Effect on tumor growth ([10]; γ-radiation + W-188 200 mg/kg, p=0.006): even greater inhibition of tumor growth compared to radiation alone
- Activation of AP24 (in words) ([11]; HL-60-Bcl-2 and PW-Bcl-2 exposed to apoptosis inducers): did not activate AP24 unless they were also treated with W-188
- AP24 Activity (AAPVase, nmol/mg/hr) ([11]; HL-60 Bcl-2): 124 nmol/mg/h
- AP24 Activity (AAPVase, nmol/mg/hr) ([11]; PW Bcl-2): 129 nmol/mg/h
- Reversal of the effect of overexpression of Bcl-2 [12]: completely reversed the effect of overexpression of Bcl-2
